Where two headings read alike, the source gives them in different places.
What was measured:
[1] = system: Bi. longum; assay: MIC against human normal gut microbiota: Bifidobacterium longum; assay type: cell-based; conditions: Bi. longum HM 848
From the text: (§1) The activity of the selected lactones against the human gut microbiota was also examined. Microbiota interfere with C. difficile's ability to colonize the gastrointestinal tract and subsequently cause infection. Many antibiotics inhibit/kill the endogenous microflora, which permits enhanced colonization by C. difficile and infection. Three different bacterial species that are present in the gut microflora were used in this experiment; Bifidobacterium (anaerobic Gram-positive bacteria), Bacteroides (anaerobic Gram-negative bacteria) and Lactobacillus (microaerophilic Gram-positive bacteria). Ideal compounds/drugs are those with selective antibacterial activity against C. difficile so as to protect the indigenous microflora present in the GI tract from being damaged/killed (which will exacerbate infections caused by C. difficile).
(§2) Bifidobacterium and Bacteroides were first grown for 48 hours at 37° C., anaerobically, using brain heart infusion supplemented (BHIS) agar (brain heart infusion agar supplemented with hemin, vitamin K and L-cysteine). Lactobacillus was cultivated on MRS agar and incubated in the presence of 5% CO2 for 48 hours at 37° C. Each bacterium was suspended in phosphate-buffered saline (PBS) to achieve 0.5 McFarland standard and subsequently diluted in brain heart infusion supplemented broth (for Bifidobacterium and Bacteroides) or in MRS broth (for Lactobacillus) to achieve a bacterial inoculum of approximately 5×10^5 CFU/mL. Bacteria were then seeded in 96-well plates containing serial dilutions of the compounds and incubated for 48 hours. MICs reported in Table 4 are the minimum concentration of compound/control drug that inhibited the visual growth of bacteria.

[2] = system: Ba. fragilis; assay: MIC against human normal gut microbiota: Bacteroides fragilis; assay type: cell-based
From the text: as §1, §2

[3] = system: E. coli (TolC mutant); assay: MIC by broth microdilution against E. coli (TolC mutant); assay type: cell-based, Escherichia coli; conditions: aerobic, 37° C., at least 18 hours
Procedure: (§3) Method: The minimum inhibitory concentration (MIC) of the compounds and control drugs, linezolid (antibiotic), vancomycin (antibiotic), 5-fluorocytosine (5-FC, antifungal drug), and fluconazole (antifungal drug) was determined using the broth microdilution method according to the guidelines outlined by the Clinical and Laboratory Standards Institute (CLSI) against clinically relevant bacterial (methicillin-resistant Staphylococcus aureus (MRSA), vancomycin-resistant Enterococcus faecalis (VRE), vancomycin-resistant Enterococcus faecium (VRE), Clostridioides difficile and Escherichia coli) and fungal (Candida albicans) strains. A solution equivalent to 0.5 McFarland standard was prepared from each strain and diluted in cation-adjusted Mueller-Hinton broth (for S. aureus and E. coli), tryptone soy broth (for E. faecalis), or brain heart infusion broth (for E. faecium) to achieve a bacterial inoculum of about 5×10^5 CFU/mL. C. difficile strains were cultured in brain heart infusion broth supplemented with hemin and vitamin K. C. albicans was diluted in RPMI medium supplemented with 3-(N-morpholino) propanesulfonic acid to achieve a fungal concentration of about 1.5×10^3 CFU/mL. Compounds and control drugs were added in the first row of the 96-well plates and diluted with media containing bacteria (to achieve a concentration gradient ranging from 128 to 1 μg/mL). For MRSA, VRE, and E. coli strains, plates were then incubated aerobically at 37° C. for at least 18 hours. C. albicans was incubated aerobically at 37° C. for 24 hours. Plates containing C. difficile were incubated anaerobically at […] for 48 hours.

[4] = system: L. crispatus; assay: MIC against human normal gut microbiota: L. crispatus; assay type: cell-based, Lactobacillus crispatus
From the text: as §1, §2

[5] = system: MRSA (USA300); assay: microbe, parasite or virus in culture; assay type: cell-based, Staphylococcus aureus; conditions: aerobic, 37° C., at least 18 hours
Procedure: as §3

[6] = system: hypervirulent Clostridioides difficile strains; assay: MIC against hypervirulent Clostridioides difficile strains; assay type: cell-based
Procedure: (§4) The antibacterial activity of compounds 48, 50, 51, 61 and 85 against a panel of Clostridioides difficile strains was evaluated. A bacterial solution equivalent to 0.5 McFarland standard was prepared and diluted in brain heart infusion broth supplemented with hemin and vitamin K. Compounds and control drugs were added in the first row of 96-well plates and serially diluted with media containing bacteria (to achieve a concentration gradient ranging from 128 to 1 μg/mL). Plates were then incubated anaerobically at […] for 48 hours.

[7] = system: C. albicans; assay: Broth microdilution against Candida albicans; assay type: cell-based; conditions: gradient 128 to 1 μg/mL, 24 hours
Procedure: as §3

[8] = system: clinically important Clostridioides difficile strains; assay: MIC against clinically important Clostridioides difficile strains; assay type: cell-based
Procedure: as §4

[9] = system: Ba. dorsei; assay: MIC against human normal gut microbiota: Bacteroides dorsei; assay type: cell-based
From the text: as §1, §2

[10] = system: Clostridioides difficile; assay: MIC by broth microdilution against Clostridioides difficile (Table 1); assay type: cell-based; conditions: anaerobic, 48 hours; strain BAA-1870
Procedure: as §3

[11] = system: L. gasseri; assay: MIC against human normal gut microbiota: L. gasseri; assay type: cell-based, Lactobacillus gasseri; conditions: L. gasseri HM 407
From the text: as §1, §2

[12] = system: E. faecium; assay: Broth microdilution against vancomycin-resistant E. faecium; assay type: cell-based, Enterococcus faecium; conditions: gradient 128 to 1 μg/mL
Procedure: as §3

[13] = system: L. casei; assay: MIC against human normal gut microbiota: L. casei; assay type: cell-based, Lactobacillus casei; conditions: L. casei HM 334
From the text: as §1, §2

[14] = system: L. reuteri; assay: MIC against human normal gut microbiota: L. reuteri; assay type: cell-based, Lactobacillus reuteri; conditions: L. reuteri HM 120
From the text: as §1, §2

[15] = system: E. faecalis (VRE); assay: microbe, parasite or virus in culture; assay type: cell-based, Enterococcus faecalis; conditions: aerobic, 37° C., at least 18 hours
Procedure: as §3

[16] = system: Bi. breve; assay: MIC against human normal gut microbiota: Bifidobacterium breve; assay type: cell-based; conditions: Bi. breve HM 856
From the text: as §1, §2

[17] = system: Clostridioides difficile; conditions: cited from earlier work

C=C1C(=O)O[C@H](c2ccc(OCc3ccccc3)c(OC(C)=O)c2)[C@@H]1c1ccccc1Br (racemic) [Compound 85]
>128 µg/mL: MIC [1] | MIC ([2]; Ba. fragilis HM 709) | MIC ([2]; Ba. fragilis HM 710) | MIC ([2]; Ba. fragilis HM 711) | MIC ([2]; Ba. fragilis HM 714) | MIC E. coli (TolC mutant) [3] | MIC ([4]; L. crispatus HM 375) | MIC ([4]; L. crispatus HM 421) | MIC MRSA (USA300) [5] | MIC ([9]; Ba. dorsei HM 29) | MIC ([9]; Ba. dorsei HM 717) | MIC [11] | MIC [13] | MIC [14] | MIC E. faecalis (VRE) [15] | MIC [16]
2 µg/mL: MIC ([6]; CD strain 82) | MIC ([6]; CD strain 85) | MIC ([6]; CD strain 87) | MIC ([6]; CD strain 90) | MIC ([6]; CD strain 49287) | MIC ([6]; CD strain 49291) | MIC ([8]; CD strain 1801) | MIC ([8]; CD strain P19)
did not inhibit: inhibition of the tested strains of E. faecium [12]
inactive: activity against C. albicans [7]
4 µg/mL: MIC ([6]; CD strain 81) | MIC ([6]; CD strain 83) | MIC ([6]; CD strain 84) | MIC ([6]; CD strain 86) | MIC ([6]; CD strain 49279) | MIC ([8]; CD strain 16) | MIC ([8]; CD strain 18) | MIC ([8]; CD strain 19) | MIC ([8]; CD strain 43255) | MIC ([8]; CD strain P6) | MIC ([8]; CD strain P7) | MIC ([8]; CD strain P13) | MIC Clostridioides difficile [10]

CCc1c(Cl)c(O)c(Cl)c(O)c1C(=O)O[C@H]1[C@H](O)[C@H](OC)[C@H](OC/C2=C\C=C\C[C@H](O)/C(C)=C/[C@H](CC)[C@@H](O[C@@H]3OC(C)(C)[C@@H](OC(=O)C(C)C)[C@H](O)[C@@H]3O)/C(C)=C/C(C)=C/C[C@@H]([C@@H](C)O)OC2=O)O[C@@H]1C [Fidaxomicin, fidaxomicin, reference compound]
128 µg/mL: MIC ([14]; Limosilactobacillus reuteri, read-out: MIC)
24%: recurrence rate ([17]; infections involving the hypervirulent strains)
0/03: MIC ([6]; CD strain 84)
> 128 µg/mL: MIC ([2]; Bacteroides fragilis, Ba. fragilis HM 709, read-out: MIC) | MIC ([9]; Bacteroides, Ba. dorsei HM 29, read-out: MIC) | MIC ([16]; Bifidobacterium breve, read-out: MIC)
0.015 µg/mL: MIC ([6]; Clostridioides difficile, CD strain 83) | MIC ([6]; Clostridioides difficile, CD strain 87) | MIC ([8]; Clostridioides difficile, CD strain 16, read-out: MIC) | MIC ([8]; Clostridioides difficile, CD strain 19, read-out: MIC) | MIC ([8]; Clostridioides difficile, CD strain 1801, read-out: MIC)
>128 µg/mL: MIC ([2]; Ba. fragilis HM 710) | MIC ([2]; Ba. fragilis HM 711) | MIC ([2]; Ba. fragilis HM 714) | MIC ([9]; Ba. dorsei HM 717)
20%: recurrence rate ([17]; patients treated for an episode of recurrent C. difficile-associated diarrhea)
≤ 0.007 µg/mL: MIC ([6]; Clostridioides difficile, CD strain 90) | MIC ([6]; Clostridioides difficile, CD strain 49279) | MIC ([6]; Clostridioides difficile, CD strain 49287) | MIC ([6]; Clostridioides difficile, CD strain 49291) | MIC ([8]; Clostridioides difficile, CD strain 18, read-out: MIC) | MIC ([8]; Clostridioides difficile, CD strain P6, read-out: MIC) | MIC ([8]; Clostridioides difficile, CD strain P7, read-out: MIC) | MIC ([8]; Clostridioides difficile, CD strain P13, read-out: MIC)
0.3 µg/mL: MIC ([6]; Clostridioides difficile, CD strain 82)
2 µg/mL: MIC ([4]; Lactobacillus crispatus, L. crispatus HM 421, read-out: MIC) | MIC ([13]; Lacticaseibacillus casei, read-out: MIC)
32 µg/mL: MIC ([1]; Bifidobacterium longum, read-out: MIC)
0.03 µg/mL: MIC ([6]; Clostridioides difficile, CD strain 81) | MIC ([6]; Clostridioides difficile, CD strain 85) | MIC ([8]; Clostridioides difficile, CD strain 43255, read-out: MIC) | MIC ([8]; Clostridioides difficile, CD strain P19, read-out: MIC)
1 µg/mL: MIC ([11]; Lactobacillus gasseri, read-out: MIC)
0.06 µg/mL: MIC ([6]; Clostridioides difficile, CD strain 86)
≤ 1 µg/mL: MIC ([4]; Lactobacillus crispatus, L. crispatus HM 375, read-out: MIC)
